Assay [1] deals with non-adherent hematopoietic fractions of differentiating hESC-derived cells. The experiment in a line: qRT-PCR of hematopoietic transcriptional regulators. Type of assay: cell-based, human. The source says:
FIG. 9A. Non-adherent hematopoietic progenitor cells derived from hESCs differentiated in the presence of SR-1, TCDD, or DMSO controls were harvested at Day 6+5 and seeded at 50,000 cells/dish in a standard methylcellulose colony-forming unit assay (CFU). Colonies were counted for each treatment group following 2 weeks of culture and scored for the following morphological subsets: BFU-E: burst-forming unit-erythroid; CFU-E: colony-forming unit-erythroid; CFU-GM: colony-forming unit-granulocyte, macrophage, CFU-M: colony-forming unit-macrophage; CFU-GEMM: colony-forming unit-granulocyte, erythroid, macrophage, megakaryocyte. n=3, error bars represent SEM of the total number of colonies/50,000 cells seeded, *p<0.05 as assessed with one-way ANOVA+Tukey-Kramer multiple comparisons post-hoc test. FIG. 9B. Non-adherent hematopoietic progenitor cells derived from hESCs differentiated in the presence of SR-1, TCDD, or DMSO controls were harvested at Day 6+3, Day 6+6, and Day 6+9 time points and probed for gene expression by quantitative real-time PCR (qRT-PCR). For each gene, Ct values were normalized to GAPDH at each time point and data is presented as relative fold-change to DMSO treated controls. n=3, error bars represent SEM, *p<0.05, **p<0.01 using student's t-test.
Non-adherent cell fractions were harvested as previously described in the main text. Total RNA was harvested using the Qiashredder tissue homogenizer kit (Qiagen, Valencia, Calif.) with RNAeasy Mini Kit. RNA concentration and purity was assessed using a NanoDrop 2000 (ThermoFisher Scientific) spectrophotometer and subsequently revere transcribed with a SensiFAST cDNA Synthesis Kit (Bioline, Taunton, Mass.). qPCR was performed using the All-in-One qPCR Mix (GeneCopoeia, Rockville, Md.) and cDNA was used at 50 ng/uL per reaction for qRT-PCR using gene specific human primer pairs (Table 1). qPCR reactions were run on an StepOnePlus Real-Time PCR System thermocycler (ThermoFisher Scientific) in either technical duplicate or triplicate. Ct values were normalized to a GAPDH housekeeper for each sample. Data were then normalized relative to controls using the 2̂-(ΔΔCt) method.
In general terms: Quantitative PCR measures a nucleic acid by following its amplification.

For assay [2], the system named is hESC-derived hematopoietic cells. The experiment in a line: NK cell differentiation from spin-EBs on OP9-DL1, flow cytometry (Example 2). The note with it: Days 11+21 and 11+28, 1 μM SR-1 or 10 nM TCDD. Type of assay: cell-based, human. As to the method:
FIG. 13A. Schema of hESC differentiation into lymphoid cells as spin-embryoid bodies (spin-EBs). hESCs are made into spin-EBs at Day 0 and cultured in Stage 1 conditions with defined cytokines to promote mesoderm development for 11 days. At Day 11, spin-EBs are transferred onto OP9-DL1 in the presence of NK cell differentiation media (NKDM) to promote lymphoid differentiation. Cells are treated beginning at Day 11+0 with either 1 μM SR-1, 10 nM TCDD, or DMSO vehicle control with media exchanges and/or harvesting performed every week for up to 4 weeks. FIG. 13B. At Day 11, differentiated spin-EBs (photo) are phenotyped for CD34^+CD45^+ expression and transferred to OP9-DL1 stroma in NKDM. Non-adherent hematopoietic cells cultured either in the presence of DMSO, SR-1, or TCDD were assessed for developing NK cell immunophenotype based on CD56^+CD45^+ expression at Days 11+21, and 11+28; representative flow cytometry plots from one differentiation are shown. FIG. 13C. Quantification of fold-change in total percentage of CD56^+CD45^+ cells at both Day 11+21 and Day 11+28 when treated with DMSO, SR-1, or TCDD. SR-1 and TCDD treatments for each differentiation are normalized to DMSO controls. n=3 independent differentiation experiments, error bars represent SEM, *p<0.05 as assessed with two-way ANOVA+Tukey-Kramer multiple comparisons post-hoc test. FIG. 13D. […]

Experimental findings from patent US20170121683A1, “ARYL HYDROCARBON RECEPTOR DISRUPTION AND ENHANCEMENT” (priority 2015, published 2017) are described below.

For the compound `Clc1cc2c(cc1Cl)Oc1cc(Cl)c(Cl)cc1O2` [TCDD, 2,3,7,8-tetrachlorodibenzo-p-dioxin], the “expression of GATA1, fold relative to DMSO controls” value in assay [1] (Day 6+3) was found to be 0.31±0.08 fold. The “expression of GATA2, fold relative to DMSO controls” value in assay [1] (Day 6+6) is on record as 0.37±0.13 fold. Besides, the “expression of PU.1” value in assay [1] (each time point (Day 6+3, 6+6, 6+9)) was “reciprocal expression”. Moreover, the “development of NK cells (CD56+CD45+) compared to DMSO treated controls” value in assay [2] was “fewer phenotypic NK cells”.

For the compound `CC(C)n1cnc2c(NCCc3ccc(O)cc3)nc(-c3csc4ccccc34)nc21` [SR-1, StemReginin-1], in assay [1] (Day 6+3), the “expression of GATA1, fold relative to DMSO controls” value was determined as 2.58±0.40 fold and the “expression of GATA2, fold relative to DMSO controls” value was 6.85±0.74 fold. Besides, the “mean GATA2:GATA1” value in assay [1] (Day 6+3, SR-1 treatment) was 2.67. Also, the “expression of CMYB” value in assay [1] (all time points) is recorded as “significant increase”. Also, in assay [2], the “development of NK cells (CD56+CD45+) compared to DMSO treated controls” value is reported as “increased development of NK cells”.
